Data on 96 molecules can be found in ChEMBL document CHEMBL3988442, “University of Dundee, Small-Polar-MMV Screening Library” (2021).

For this experiment, the system named is Schistosoma mansoni. The experiment is described as follows: High throughput screening of compounds against Schistosoma mansoni motility. In kind it is functional. Also noted: dose or concentration left out as unconfirmed.

Consider `Cc1cccnc1NC(=O)CSc1ccc2c(c1)OCCO2`, for which the “Percent Effect” value is listed as -40.06%.
To `O=C(CSc1nc2c(cnn2CCO)c(=O)[nH]1)N1CCCCCC1` belongs -11.33%.
To `CN1C(=O)C(C)(C)COc2cc(NS(=O)(=O)c3ccccc3)ccc21` belongs 35.25%; to `CC(C)c1nn(CC(=O)N2CCCCC2)c(=O)c2c1cnn2C(C)(C)C`, -88.07%; to `CCCc1cc(=O)[nH]c2nnc(SCC(=O)NCc3ccc(C)cc3)n12`, -78.33%.
To `O=c1nc(SCc2ccncc2)c2c(n1CCO)CCCC2` belongs -51.22%; to `COc1ccc(F)cc1S(=O)(=O)NCC(c1cccn1C)N(C)C` (stereo unspecified), -13.44%.
For `Cc1noc(C)c1CCC(=O)N1CCN(CCn2cccn2)CC1`, the “Percent Effect” value was -23.72%.
Consider `O=C(NCC(Cc1cccc(F)c1)N1CCCC1=O)c1ccccc1` (stereo unspecified), for which the “Percent Effect” value was -23.79%.
Regarding `CSCC(C)(O)CNC(=O)c1cc(Br)ccc1Cl` (stereo unspecified), the “Percent Effect” value is listed as -27.72%.
For the molecule `CS(=O)(=O)N1CCc2nc(NC(=O)Nc3c(F)cccc3F)sc2C1`, the “Percent Effect” value is reported as -37.65%.
To `O=S(=O)(c1ccccc1)N1CCN(CCn2ccnc2)CC1` belongs -51.46%; to `Cn1c(C(F)(F)F)nn(CCNC(=O)CSCc2ccccc2)c1=O`, -2.069%; to `O=C1CCSCC(C(=O)N2CCOCC2)N1` (stereo unspecified), -55.74%.
The figure for `COC(=O)c1sccc1S(=O)(=O)N1CCC(Oc2cccnn2)CC1` is -55.3%; for `Cc1cnc2n(c1=O)CC(C(=O)Nc1ccccc1Cl)CS2` (stereo unspecified) it is -94.31%.
To `O=C(NCCn1ccc(-c2ccncc2)n1)c1ccncc1` belongs -35.45%.
For the molecule `O=C(NCCn1ccc(-c2ccccn2)n1)c1ccncc1`, the “Percent Effect” value is given as -46.65%.
For the molecule `CN(C(=O)Cn1nc(-c2ccc(F)cc2)oc1=O)C1CCS(=O)(=O)C1` (stereo unspecified), the “Percent Effect” value is reported as -46.67%.
To `NC(=O)CN1CCC(NC(=O)c2ccn(-c3cccc(F)c3)n2)CC1` belongs 5.204%.
To `NC(=O)CN1CCCN(C(=O)c2ccn(-c3cccc(F)c3)n2)CC1` belongs -9.604%; to `OC1CCN(Cc2cc3c(cc2Br)OCCO3)CC1`, 8.478%; to `Cc1ccc(CC(=O)N2CCOC(c3nc(C(C)(C)C)n[nH]3)C2)cn1` (stereo unspecified), 7.474%.
The figure for `CCNS(=O)(=O)c1ccc(C)c(C(=O)N(C)Cc2ccco2)c1` is -32.86%; for `CCc1nnc2n1CCN(Cc1csc(-c3ccsc3)n1)C2` it is -55.89%; for `CN(C)CCN(Cc1cccc(C(F)(F)F)c1)C(=O)c1cc[nH]n1` it is 19.83%.
Take `Cc1nc(C2CCCN(C(=O)c3sccc3C3CC3)C2)no1` (stereo unspecified): the “Percent Effect” value is listed as -33.52%.
For `O=C(c1cc(Cl)c2c(c1)OCO2)N1CCN(c2ccccn2)CC1`, the “Percent Effect” value was -95.4%.
To `CC(C)NC(=O)NCCCc1cc(N)n(-c2ccccc2)n1` belongs -56.45%; to `Nc1cc(CCCNC(=O)NC2CC2)nn1-c1ccccc1`, -35.32%; to `OCCOc1nc(-c2ccccc2Cl)no1`, -41.46%.
The figure for `CN(CC(F)(F)F)C(=O)C1CSCN1C(=O)OC(C)(C)C` (stereo unspecified) is -9.988%; for `COc1ccc(NC(=O)NC(C)(C)c2noc(C)n2)cc1` it is -52.77%; for `Cc1nc2n(n1)CC(Nc1cc(C(F)(F)F)nc3ncnn13)CC2` (stereo unspecified) it is -11.7%.
To `CC(C)CNC(=O)NC(=O)CNc1ccccc1SCC(C)C#N` (stereo unspecified) belongs -9.977%.
For the molecule `CCOCCN1CCN(Cc2nc(C3CC3)no2)CC1CC` (stereo unspecified), the “Percent Effect” value was -35.07%.
To `CCc1ncc2c(n1)CN(Cc1nc(C)c(C)o1)CC2` belongs -33.77%; to `CC(C)NC(=O)N1CCC(n2ccc(C(F)(F)F)n2)CC1`, -11.19%; to `CC(OCC(F)(F)F)C(=O)N1CCCCC1` (stereo unspecified), -17.04%.
For the molecule `CN(CCC(F)(F)F)C(=O)[C@H]1CSCN1C(=O)OC(C)(C)C`, the “Percent Effect” value was -27.39%.
The figure for `CCC1CN(Cc2ccccc2)CCN1Cc1nnc(C2CCC2)o1` (stereo unspecified) is 44.59%; for `CCc1n[nH]c(C2CN(CC(=O)NCCc3ccsc3)CCO2)n1` (stereo unspecified) it is -30.25%; for `COc1ccc(NC(C)C(=O)N2CCN(Cc3ccccc3)CC2)cn1` (stereo unspecified) it is -29.98%.
The figure for `CCc1noc(C(C)N(C)CC(=O)Nc2ccc(C)cc2)n1` (stereo unspecified) is -42.61%.
For the molecule `Cc1ccn(-c2ccccc2NCc2cccnc2C)n1`, the “Percent Effect” value is given as -3.196%.
To `CCc1ccccc1C(=O)N1CCN(S(C)(=O)=O)[C@@H](C)C1` belongs -27.03%; to `CCc1nc(CN2CCCC(N(C)Cc3cnn(C)c3)C2)no1` (stereo unspecified), -19.11%; to `O=C(CN1CCCC1Cn1cncn1)Nc1cccnc1` (stereo unspecified), -24.16%.
The figure for `COc1ccc(CNC(=O)NC2CCC(O)CC2)c(C(F)(F)F)c1` (stereo unspecified) is -1.236%.
The figure for `Cc1nc(C)n(CC2CCCCN2CC(=O)Nc2cccnc2)n1` (stereo unspecified) is -10.51%.
Regarding `c1cc2c(cc1C1CCCN1Cc1nnnn1C1CC1)OCCO2` (stereo unspecified), the “Percent Effect” value is on record as 5.096%.
Consider `c1ccc(C2CCCN2Cc2nnnn2C2CC2)cc1` (stereo unspecified), for which the “Percent Effect” value is -33.61%.
As for `CCCc1n[nH]c(C2CN(C(=O)CCCn3cccn3)CCO2)n1` (stereo unspecified), the “Percent Effect” value was -21.33%.
For `CCCc1n[nH]c(C2CN(CCn3cccn3)CCO2)n1` (stereo unspecified), the “Percent Effect” value was 4.257%.
The figure for `Cc1ccc(C(=O)N2CCCC2c2nnc3n2CCCCC3)o1` (stereo unspecified) is -40.92%.
As to `CN(CCCNc1cc(N2CCCC2CO)ncn1)S(C)(=O)=O` (stereo unspecified), the “Percent Effect” value is -51.96%.
The figure for `Cc1nn(C)c(C)c1NC(=O)CN1CCCC1c1noc(C2CC2)n1` (stereo unspecified) is -50.94%.
On to `CS(=O)(=O)c1ccccc1C(=O)NCC1Cc2ccccc2O1` (stereo unspecified), for which the “Percent Effect” value is on record as -25.81%.
With `COc1ncccc1C(=O)NCC1Cc2ccccc2O1` (stereo unspecified), the “Percent Effect” value is on record as -86.67%.
The figure for `Cc1nccn1-c1cc(CNC(=O)c2ccccn2)ccn1` is -81.26%; for `O=C(Nc1nccs1)N1CCCC(N2CCNC2=O)C1` (stereo unspecified) it is -22.52%; for `Cc1nc(C)n(CC2CCCN(CCc3ccncc3)C2)n1` (stereo unspecified) it is -44.91%.
The figure for `Cc1cc(N2CCC(N(C)C(=O)Nc3ccccc3)CC2)nc(C)n1` is -25.09%; for `CCN1CCCC1CN(CCN(C)C)S(=O)(=O)c1cccc(C#N)c1` (stereo unspecified) it is 27.57%.
As to `Cc1cnn(CC2CN(CCc3ccncc3)CCO2)c1` (stereo unspecified), the “Percent Effect” value was -83.94%.
In the case of `CC(C)S(=O)(=O)NCC1CCCN(C(=O)c2ccc3c(c2)OCCO3)C1` (stereo unspecified), the “Percent Effect” value is reported as -47.11%.
The figure for `CC1CN(C)c2ccccc2CN1C(=O)c1ccncc1` (stereo unspecified) is -35.26%.
To `C1CCCN(c2nc(C3CC3)ns2)CC1` belongs -22.51%; to `Cn1nnc2cc(C(=O)N3CCCC3Cc3ccccc3)ccc21` (stereo unspecified), -37.55%; to `Cc1n[nH]c(C)c1C1CCCN1C(=O)CNC(=O)C(C)(C)C` (stereo unspecified), -23.3%.
With `CCN1CC(C(=O)NCc2ccnc(-n3ccnc3C)c2)CC1=O` (stereo unspecified), the “Percent Effect” value is recorded as -29.1%.
To `CCCN1CCCn2nc(CNC(=O)CCc3scnc3C)cc2C1` belongs 25.43%; to `Cc1cc(C[C@@H]2COC[C@@H]2NC(=O)CN2CCCC2)on1`, -45.11%; to `O=C(c1cccnc1)N1C[C@@H]2CC[C@H](C1)N(Cc1cccc(Cl)c1F)C2`, 6.232%.
The figure for `Cc1ccc(F)c(OC2(C(=O)O)CCN(C(=O)N3CCCC3)CC2)c1` is -4.164%; for `COCC(=O)N1Cc2cnc(Cc3ccc(OC)cc3)nc2C1` it is -28.71%.
To `CN(CCN1CCCCCC1)C(=O)c1cc(CN2CCC(O)CC2)on1` belongs -17.62%; to `Cn1nc(C(=O)N2CCCCC2c2nc3cc(F)ccc3[nH]2)ccc1=O` (stereo unspecified), -12.79%.
In the case of `Cc1c[nH]c(CN(C)c2nc(C3CCCC3)nc3c2cnn3C)n1`, the “Percent Effect” value is on record as -22.17%.
The figure for `CSc1ncc(C(=O)N2C[C@H]3CC[C@@H]2CN(Cc2ccccc2)C3)cn1` is -35.01%.
To `CC(C)C1CN(c2ncc(F)cn2)CCC(=O)N1Cc1ccc(F)cc1` (stereo unspecified) belongs 75.74%; to `CN1CCN(Cc2nnc(C3CCN(CC4CC4)CC3)n2C)CC1`, -64.34%.
The figure for `Cc1ncc(-c2nc3cc(S(=O)(=O)N4CCCC4)ccc3n2C)cn1` is -72.39%; for `O=C(c1ccccn1)N1CCCC(c2nccn2Cc2ccncc2)C1` (stereo unspecified) it is -73.06%; for `COC(=O)c1ccc2ccn(CC3CCNC3)c(=O)c2c1` (stereo unspecified) it is -40.15%.
`CCC(=O)N1CCc2[nH]cnc2C12CCN(C(=O)CCS(C)(=O)=O)CC2`: the “Percent Effect” value is -12.74%.
For `Cc1ccsc1CN(Cc1ccccn1)CC(C)C`, the “Percent Effect” value turned out to be 6.222%.
For `CSCCCN1CCn2nc(CNC(C)=O)cc2C1`, the “Percent Effect” value is given as -25.09%.
On to `O=C(CSc1ccncc1)N1C[C@H]2CC[C@@H]1CN(Cc1cccnc1)C2`, for which the “Percent Effect” value is on record as -27.79%.
To `CC1CCN(Cc2cnc(S(=O)(=O)CC3CC3)n2CC2CCCO2)CC1` (stereo unspecified) belongs -34.33%; to `COCCCC1(CO)CCCN(CCS(C)(=O)=O)C1` (stereo unspecified), -38.37%.
To `O=C(CSc1ncccn1)N1C[C@H]2CC[C@@H]1CN(Cc1ccncc1)C2` belongs -45.84%; to `CC(C)C(=O)N1CCN(C(=O)c2cscn2)[C@H]2CS(=O)(=O)C[C@H]21`, -16.72%; to `CC(=O)c1cc(CN2C[C@H]3CC[C@@H]2CN(S(=O)(=O)N(C)C)C3)cs1`, -16.28%.
On to `CC(C)(C)c1cc(CN2CC[C@@H](NC(=O)c3cccnc3)[C@H](O)C2)n[nH]1`, for which the “Percent Effect” value is on record as -5.341%.
To `COC(=O)CN1CC(c2nc(Cc3ccccc3)no2)C1.O=C(O)C(=O)O` belongs -0.4449%.
